Paper PMC12292521, “Discovery of a Potent Antimicrobial Peptide Through Rational Design: A New Frontier in Pathogen Control” (Biomolecules, 2025)
Peptide text beside a SMILES is read from it.

Legend:
Test in all cases: Quantitative suspension test, bactericidal activity, BS EN 1276:2019
Format in all cases: cell-based
Design in all cases: key to Bactericidal activity verdict: Active: For bacteria: ACTIVE if log R ≥ 5 according to BS EN 1276:2019; Not active: For bacteria: ACTIVE if log R ≥ 5 according to BS EN 1276:2019
Conditions in all cases: 60 min, 37 °C, BSA 0.3 g/L
[1] = tested on: Staphylococcus epidermidis ATCC 12228
Excerpt: (§1) The method is based on the suspension test according to BS EN 1276:2019, which specifies a quantitative suspension analysis for the evaluation of the bactericidal activity of chemical disinfectants and antiseptics used in food, industrial, domestic, and institutional areas against a panel of microorganisms under conditions that more closely simulate practical use. Briefly, S. aureus ATCC 6538, P. aeruginosa ATCC 15442, and Staphylococcus epidermidis ATCC 12228 were used as test organisms at a bacterial concentration of 1.0 × 10^8 colony-forming units (CFU) per mL (CFU/mL). In the test, BSA (Bovine Serum Albumin) (0.3 g/L) was used as an interfering substance to mimic clean conditions. […] The reaction mixture was incubated at 37 °C for 60 min before transferring each sample to a tube containing a neutralizer solution consisting of 30 g/L polysorbate 80, 1 g/L sodium thiosulfate, 3 g/L lecithin, 1 g/L tryptone, 8.5 g/L NaCl, 100 mL/L phosphate buffer and water. The negative control (untreated cells) was prepared using PBS instead of biocides. The solutions were then plated onto Tryptone Soy Agar (TSA) and incubated at 37 °C for 48 h to determine the logarithmic CFU/mL reduction, according to the following Equation:(2) log R = log (N0) − log (Na) where R refers to the reduction in viability, N refers to the number of CFU/mL in the test mixture at the beginning of the contact time, and Na refers to the number of CFU/mL in the test mixture at the end of the contact time. […] The test method and the minimum requirements for fungicidal activity of chemical disinfectant and antiseptic products were performed according to BS EN 1650:2019. The fungicidal activity was studied using the vegetative cells of Candida albicans ATCC 10231 and the spores of Aspergillus brasiliensis ATCC 16404 as test organisms. […] The mixture was maintained at 37 °C for a contact time of 60 min. At the end of this contact time, an aliquot was taken, and the fungicidal activity was immediately neutralized with a solution consisting of 30 g/L polysorbate 80, 1 g/L sodium thiosulfate, 3 g/L lecithin, 1 g/L tryptone, 8.5 g/L NaCl, 100 mL/L phosphate buffer and water. The samples were then plated onto malt extract agar (MEA) and incubated at 30 °C for 48 h to determine the numbers of surviving fungi as the logarithmic CFU/mL reduction, calculated according to Equation (2).

[2] = tested on: Staphylococcus aureus ATCC 6538
Excerpt: as §1

[3] = tested on: Pseudomonas aeruginosa ATCC 15442
Excerpt: as §1

With `CC[C@H](C)[C@H](NC(=O)[C@H](Cc1c[nH]c2ccccc12)NC(=O)[C@H](CCCCN)NC(=O)[C@@H](N)CCCNC(=N)N)C(=O)N[C@@H](CC(C)C)C(=O)N[C@@H](CCCCN)C(=O)N[C@@H](Cc1c[nH]c2ccccc12)C(=O)N[C@@H](CC(C)C)C(=O)N[C@@H](CCCNC(=N)N)C(=O)N[C@H](C(=O)N[C@@H](Cc1c[nH]c2ccccc12)C(=O)N[C@@H](CCCCN)C(=O)N[C@@H](CCCCN)C(N)=O)[C@@H](C)O` [RKW] (H-RKWILKWLRTWKK-NH2; N-terminus assumed) the Bactericidal activity verdict ([1]; RKW 5 µM) was “Na = 3.70 × 10^2 log Na = 2.57 log R = 4.71 Not active”, the “Na (CFU/mL at the end of the contact time)” value (“Na” below) ([1]; RKW 5 µM) was 3.70 × 10^2 CFU/mL and the Bactericidal activity verdict ([1]; RKW 10 µM) was “Na = 2.40 × 10^2 log Na = 2.38 log R = 4.90 Not active”. For the same compound, the “Na” value ([1]; RKW 10 µM) was 2.40 × 10^2 CFU/mL, the Bactericidal activity verdict ([1]; RKW 20 µM) was “Na = 1.60 × 10^2 log Na = 2.20 log R = 5.08 Active” and the “Na” value ([1]; RKW 20 µM) was 1.60 × 10^2 CFU/mL. The Bactericidal activity verdict ([1]; RKW 50 µM) was “Na = 1.60 × 10^2 log Na = 2.20 log R = 5.08 Active”, the “Na” value ([1]; RKW 50 µM) was 1.60 × 10^2 CFU/mL and the Bactericidal activity verdict ([1]; RKW 100 µM) was “Na = 1.60 × 10^2 log Na = 2.20 log R = 5.08 Active”. For the same compound, the “Na” value ([1]; RKW 100 µM) was 1.60 × 10^2 CFU/mL, the Bactericidal activity verdict ([2]; RKW 5 µM) was “Na = 1.11 × 10^5 log Na = 5.10 log R = 2.25 Not active” and the “Na” value ([2]; RKW 5 µM) was 1.11 × 10^5 CFU/mL. The Bactericidal activity verdict ([2]; RKW 10 µM) was “Na = 5.10 × 10^4 log Na = 4.71 log R = 2.59 Not active”, the “Na” value ([2]; RKW 10 µM) was 5.10 × 10^4 CFU/mL and the Bactericidal activity verdict ([2]; RKW 20 µM) was “Na= 1.47 × 10^4 log Na = 4.20 log R = 3.13 Not active”. The “Na” value ([2]; RKW 20 µM) was 1.47 × 10^4 CFU/mL, the “Na” value ([2]; RKW 50 µM) was 1.47 × 10^4 CFU/mL and the “Na” value ([2]; RKW 100 µM) was 1.47 × 10^4 CFU/mL. The Bactericidal activity verdict ([3]; RKW 5 µM) was “Active”, the “Na” value ([3]; RKW 5 µM) was < 1.40 × 10^2 CFU/mL and the Bactericidal activity verdict ([3]; RKW 10 µM) was “Active”. The “Na” value ([3]; RKW 10 µM) was < 1.40 × 10^2 CFU/mL, the Bactericidal activity verdict ([3]; RKW 20 µM) was “Active” and the “Na” value ([3]; RKW 20 µM) was < 1.40 × 10^2 CFU/mL. The Bactericidal activity verdict ([3]; RKW 50 µM) was “Active”, the “Na” value ([3]; RKW 50 µM) was < 1.40 × 10^2 CFU/mL and the Bactericidal activity verdict ([3]; RKW 100 µM) was “Active”. The “Na” value ([3]; RKW 100 µM) was < 1.40 × 10^2 CFU/mL.
